# Measurements reported in patent publication US20260207624A1, “COADMINISTRATION OF ESTROGEN WITH ESTROGEN RECEPTOR MODULATOR OR DEGRADER OR ER TARGETED PROTAC FOR THE TREATMENT OF ESTROGEN RESPONSIVE CANCERS” (Duke University, priority 2022, published 2026).
# “Also recorded” adds a separate entry of the source.
# Tests used:
# A7C11 mammary tumors = assay: A7C11 mammary tumor growth in C57BL6 mice receiving placebo or estradiol; type: in vivo, mouse; conditions: for effect on tumor growth, fulvestrant alone: mice lacking estrogen exposure
# Description: FIGS. 11a-11b. […] 2 days later mice were subdivided to receive treatment with vehicle or fulvestrant (25, 50 or 100 mg/kg sc q5d). Average tumor volume throughout treatment (FIG. 11A) and uterine weight (FIG. 11B) at necropsy are presented. Placebo and E2+Veh groups in (FIG. 11A) are common between graphs to facilitate comparison. * p<0.05, 2-way (FIG. 11A) or 1-way (FIG. 11B) ANOVA followed by Tukey multiple comparison test. […]
# (§1) Prior to implantation into animals, BPD6, E0771, and A7C11 cells were cultured in DMEM media supplemented with 8% fetal bovine serum, non-essential amino acids and sodium pyruvate. Cells were trypsinized and injected in phosphate buffered saline.
# For all experiments, mice were ovariectomized under anesthesia at 7 weeks of age and were provided placebo or estrogen (2.72 mcg/mL) treatment in drinking water throughout the remainder of the experiment. 7 to 10 days after surgery 0.5×10^6 BPD6melanoma cells or E0771 (0.2×10^6) or A7C 11 (0.4×10^5) mammary cancer cells per mouse were injected subcutaneously (BPD6) or orthotopically (A7C11 or E0771) into the axial mammary gland. Tumor growth was monitored by caliper measurement at least 3× weekly and was calculated as L×W2×0.5. For those mice receiving treatment with SERDs, mice were randomized to treatment 2 days after tumor implantation. 3574 (camizestrant) and 3964 were administered PO QD (by mouth every day) formulated in 5% DMSO/20% hydroxypropyl-b-cyclodextrin. Fulvestrant was administered SC Q5D in 10% DMSO/[…]. […]
# BPD6 melanoma tumors = assay: BPD6 tumor growth in mice with ER ablated in macrophages (LysMCre+) or littermate controls; type: in vivo, mouse
# Description: FIG. 5. TUMOR GROWTH IS REPRESSED WITH ESTROGEN AND A BRAIN-EXCLUDED SERD. FIG. 5 is a graph of tumor growth for BPD6 tumors with or without ER for the various indicated drug treatments. […] An analogous experiment to that presented in FIGS. 2A-2B and FIGS. 3A-3B was conducted in mice in which ER expression in macrophages was ablated using a promoter (LysM) to drive expression of the Cre enzyme to delete this receptor specifically in this cell type in mice having a floxed allele of ER. BPD6 melanoma tumors were implanted subcutaneously into Cre+ (ER ablated in macrophage) or littermate (LM, phenotypically wild type) mice that had been ovariectomized and then assigned to placebo or E2 treatment.
# (§2) For all experiments, mice were ovariectomized under anesthesia at 7 weeks of age and were provided placebo or estrogen (2.72 mcg/mL) treatment in drinking water throughout the remainder of the experiment. 7 to 10 days after surgery 0.5×10^6 BPD6melanoma cells or E0771 (0.2×10^6) or A7C 11 (0.4×10^5) mammary cancer cells per mouse were injected subcutaneously (BPD6) or orthotopically (A7C11 or E0771) into the axial mammary gland. Tumor growth was monitored by caliper measurement at least 3× weekly and was calculated as L×W2×0.5. For those mice receiving treatment with SERDs, mice were randomized to treatment 2 days after tumor implantation. 3574 (camizestrant) and 3964 were administered PO QD (by mouth every day) formulated in 5% DMSO/20% hydroxypropyl-b-cyclodextrin. Fulvestrant was administered SC Q5D in 10% DMSO/95% corn oil.
# It was previously determined that for some cancer subtypes, including melanoma, one mechanism by which estrogens modulate tumor growth is by promoting a pro-tumor anti-inflammatory M2-like phenotype in the tumor infiltrating macrophages. Using a genetic model employing Cre-Lox technology to specifically delete estrogen receptor in myeloid cells (including macrophages), it was previously determined that loss of estrogen receptor expression in this immune cell population results in the loss of estrogen modulation of tumor growth in these tumors. […] BOD6 tumors were implanted in ovariectomized ERflox/flox/LysMCre+ or ERflox/flox mice that received placebo or estradiol treatment. Mice were further randomized to receive vehicle or SERD 3574 (10 mg/kg po qd; by mouth every day). Average tumor volume +/−SEM was determined. Significance (p<0.05) was determined by 2-way ANOVA followed by Tukey's multiple comparison test.
# uterus = assay: Uterine wet weight at necropsy as measure of estrogen stimulation; type: in vivo, mouse
# Description: as §2
# (§3) At the conclusion of tumor measurement (approximately 2 weeks or when tumor reached 1.5-2 cm^3 volume), mice were euthanized by CO2 exposure followed by decapitation. Uteri were removed at necropsy and weighed as a measure of estrogen stimulation.
# (§4) To further explore the role of brain-expressed ER in tumor growth in the periphery, 2 SERDs were used with unique pharmacokinetics. […] ER-negative BPD6 melanoma cells were implanted into ovariectomized mice receiving either placebo or estradiol (E2) treatment in drinking water. After 48 hours, mice were randomized to receive vehicle (veh) or selective estrogen receptor degrader 3574 (10 mg/kg po qd; by mouth every day). Average tumor volume +/−SEM at each day of measurement was determined. Significance (p<0.05) was determined by 2-way ANOVA followed by Tukey's multiple comparison test. […] Treatment with anti-estrogens reversed this estradiol stimulation of tumor growth. E2 treated groups are included FIGS. 3A-3B.
# E0771 mammary tumors = assay: E0771 mammary tumor growth in ovariectomized mice receiving placebo or E2; type: in vivo, mouse
# Description: as §1, §2, §3
# Analogous to the experiment in Example 4, E0771 mammary tumors were implanted in ovariectomized mice receiving E2 or placebo treatment.
# BPD6 melanoma cells = assay: BPD6 melanoma tumor growth in ovariectomized mice receiving placebo or E2; type: in vivo, mouse; conditions: BPD6 tumors
# Description: as §1, §2, §3, §4
# To further explore the relationship between brain exposure to SERDs and tumor response, a second melanoma experiment was conducted in which BPD6 tumors were implanted into ovariectomized mice receiving vehicle or estradiol treatment. These groups were further subdivided to receive vehicle or treatment with 25, 50, or 100 mg/kg fulvestrant.
# [1] = Brain penetration of the SERDs (pharmacokinetics); conditions: stated as a property of the SERD, no test described
# [2] = Cre- littermate control (LM) mice of the brain-ERKO experiment, E2 in drinking water
smiles,measurement,setting,value
"C[C@]12CC[C@@H]3c4ccc(O)cc4CC[C@H]3[C@@H]1CC[C@@H]2O [E2, 17β-estradiol]",effect of E2 on tumor growth vs placebo treated control,A7C11 mammary tumors; [2],accelerated the growth of the tumors
same,effect on tumor growth,A7C11 mammary tumors; estradiol (2.72 mcg/mL drinking water) and vehicle co-administered,increase in A7C11 tumor growth
same,effect of E2 on tumor growth,BPD6 melanoma tumors; Cre+ mice (ER ablated in macrophage),without significant effect on tumor growth
same,tumor volume as compared to the placebo control,"BPD6 melanoma tumors; Cre- LM control mice, E2 treatment",2 fold
same,increase in uterine wet weight,"uterus; estrogen treatment vs placebo, BPD6 tumor bearing ovariectomized mice (FIG. 2A)",~10 fold
same,effect of E2 on tumor growth vs placebo treated control,E0771 mammary tumors; [2],accelerated the growth of the tumors
same,tumor volume relative to placebo control,E0771 mammary tumors; E2 treatment alone (FIG. 4A),approximately 2 fold
same,effect of E2 on tumor growth vs placebo treated control,BPD6 melanoma cells; [2],accelerated the growth of the tumors
same,increase in tumor growth as compared to placebo/vehicle treatment,"BPD6 melanoma cells; ovariectomized wild-type mice, agent alone (FIG. 2B)",3 fold
"C[C@@H]1Cc2c(ccc3[nH]ncc23)[C@@H](c2ccc(NC3CN(CCCF)C3)cn2)N1CC(F)(F)F [compound 3574, camizestrant]","effect on tumor growth, SERD alone",A7C11 mammary tumors; animals lacking estrogen exposure (FIGS. 12B-12D),did not impact tumor growth
same,"effect on tumor growth, SERD together with estrogen",A7C11 mammary tumors; estradiol treated mice (FIGS. 12B-12D),further repressed tumor growth
same,effect on tumor growth vs Cre+ mice receiving E2 alone,"BPD6 melanoma tumors; Cre+ mice, 3574 10 mg/kg po qd and E2 together",significantly inhibited tumor growth
same,"effect on growth of tumors, SERD alone","BPD6 melanoma tumors; placebo treated Cre+ mice, 3574 10 mg/kg po qd",did not affect the growth of tumors
same,effect on E2 stimulation of the uterus (post-mortem uterine wet weight),"uterus; E0771 tumor bearing mice, all doses of the SERD",reversed E2 stimulation of the uterus
same,effect on E2 stimulation of uterine wet weight,"uterus; SERD with E2, BPD6 tumor bearing ovariectomized mice",reversed E2 stimulation of uterine wet weight
same,"effect on uterine weight, SERD alone (ER agonist activity)","uterus; placebo together with SERD, BPD6 tumor bearing ovariectomized mice",did not affect uterine weight
same,brain penetration,[1],brain excluded
same,effect on E2 stimulation of tumor growth,"E0771 mammary tumors; E2-treated mice, 3574 (10 mg/kg)",reversed E2 stimulation of tumor growth
same,effect on E2 induced tumor growth,"BPD6 melanoma cells; 3574 10 mg/kg po qd together with E2, 10 mg/kg","suppressed tumor growth below that observed in the placebo/vehicle treated control; also recorded: reversed E2 induced tumor growth, but in fact significantly repressed tumor growth as compared to placebo treatment alone"
same,"effect on tumor growth, SERD alone","BPD6 melanoma cells; placebo treated (no E2) mice, 3574 10 mg/kg po qd",without effect on tumor growth
C[C@]12CC[C@@H]3c4ccc(O)cc4C[C@@H](CCCCCCCCC[S+]([O-])CCCC(F)(F)C(F)(F)F)[C@H]3[C@@H]1CC[C@@H]2O (stereo partly drawn) [fulvestrant],effect on estrogen induction of tumor growth,"A7C11 mammary tumors; estradiol treated mice, 25, 50, or 100 mg/kg fulvestrant",similarly inhibited estrogen induction of A7C11 tumor growth
same,"effect on tumor growth, fulvestrant alone",A7C11 mammary tumors; 25 mg/kg fulvestrant sc q5d,dose not affect A7C11 tumor growth
same,"effect on tumor growth, fulvestrant alone",A7C11 mammary tumors; 50 or 100 mg/kg fulvestrant sc q5d,tumor growth comparable to that observed for the estrogen control group
same,effect on estrogen-dependent increases in uterine weight,"uterus; A7C11 tumor bearing mice, fulvestrant 25, 50, or 100 mg/kg sc q5d",similarly repressed estrogen-dependent increases in uterine weight
same,effect on E2 stimulation of tumor growth,"BPD6 melanoma cells; E2-treated mice, fulvestrant 25, 50, or 100 mg/kg",reversed E2 stimulation of tumor growth
same,"effect on tumor growth, fulvestrant alone","BPD6 melanoma cells; placebo treated mice, fulvestrant 100 mg/kg",growth similar to that of the estrogen/vehicle control; also recorded: induced tumor growth itself
Oc1ccc2c(c1)CC[C@H](c1ccccc1)[C@@H]2c1ccc(OCCN2CCCC2)cc1 [lasofoxifene],effect on tumor growth as compared to the placebo/vehicle control group,A7C11 mammary tumors; 3 mg/kg lasofoxifene po qd co-administered with estradiol,repression of tumor growth
